Results reported in patent US6461593B1, “Therapy with coenzyme Q10 to reduce subgingival microorganisms in patients with periodontal disease” (Biomedical and Clinical Research, priority 1992, dated 2002).
“And” between values parts separate entries of the source, which are not always exact repeats. Equal entries are not always repeated. “Also recorded” adds a separate entry of the source.

How the values were obtained:
[1] = cited from earlier work
[2] = tested on: tumors induced by dibenzpyrene; settings: cited from earlier work
[3] = oral administration (ref 5); cited from earlier work
motile rods = assay: Phase contrast microscopy of subgingival plaque: motile rods; format: in vivo, human
Procedure: (§1) Twenty-two systemically healthy patients with periodontal disease, 11 males and 11 females, ages 33 to 66, participated in this trial. These volunteers were treated orally with 100 mg of CoQ10 per day for two months. Informed consent forms were signed prior to the study. Periodontal examinations and peripheral blood analyses were made before and during the trial. During the trial, the patients were not provided any routine periodontal treatment, and the staff gave them no information about oral hygiene to the patients.
(§2) The gingival index (8) and plaque index (9) were criteria to assess to degrees of gingival inflammation and accumulation of plaque on the teeth, respectively. The periodontal pocket depth was measured in interdental regions of buccal gingiva. The deepest pocket which was measured before administration of CoQ10 was selected for direct examination of oral bacteria by a microscope. The subgingival plaques were obtained with a curette, and were then dispersed in physiological saline which contained 1% gelatin, and were then prepared for analysis by phase contrast microscopy. The biopsies were viewed by means of a DS/300 microscope system (Dental Scientific Systems, Inc., VA) at 400× magnification. […]

[4] = Periodontal pocket depth in patients with periodontal disease, oral CoQ10 trial; format: in vivo, human
Procedure: as §1
(§3) The gingival index (8) and plaque index (9) were criteria to assess to degrees of gingival inflammation and accumulation of plaque on the teeth, respectively. The periodontal pocket depth was measured in interdental regions of buccal gingiva. The deepest pocket which was measured before administration of CoQ10 was selected for direct examination of oral bacteria by a microscope. The subgingival plaques were obtained with a curette, and were then dispersed in physiological saline which contained 1% gelatin, and were then prepared for analysis by phase contrast microscopy. The biopsies were viewed by means of a DS/300 microscope system (Dental Scientific Systems, Inc., VA) at 400× magnification. Small spirochetes, large spirochetes, spinning rods, spiral rods, small gliding rods, large gliding rods and palisading rods were identified as based upon cellular morphology and active motility. The following scores were used in each category: 0, no bacterial cells; 1, 1-9 cells; 2, 10-39 cells; and 3, more than 40 cells.

[5] = oral administration (ref 14); cited from earlier work
Blood CoQ10 level = format: in vivo, human
Procedure: as §1
(§4) About 3 ml of peripheral blood was drawn for determination of CoQ10 levels and the T4/T8 ratios. The determination of the COQ10 level was performed as described by Ye et al. (10). T4(CD4) and T8 (CD8) monoclonal antibodies were purchased from Coulter Immunology, Hialeah, Fla. The lymphocytes were stained according to the two-color fluorescence, and the flow cytometric analysis was performed on an Epics Profile cell sorter (Coulter Electronics Inc., Hileah, Fla.).The sample preparations and staining procedures were performed as described by Parker et al. (11).
(§5) A paired-t test was used for the statistical analysis of differences in the gingival index, the plaque index, the blood CoQ10 levels, and the T4/TS ratios before and after the administration. The Wilcoxson test was used to test scores in microscopic analysis.

Plasmodium berghei = settings: mice infected with Plasmodium berghei; cited from earlier work
T4/T8 lymphocytes = assay: T4/T8 lymphocyte ratio in peripheral blood by flow cytometry; format: in vivo, human
Procedure: as §1, §4, §5

[6] = patients with AIDS and the AIDS-related complex; cited from earlier work
[7] = Gingival index in patients with periodontal disease, oral CoQ10 trial; format: in vivo, human; design: Gingival Index, 2 Months: scale not given here
Procedure: as §1, §3, §5

[8] = Plaque index in patients with periodontal disease, oral CoQ10 trial; format: in vivo, human; design: Plaque Index, 2 Months: scale not given here
Procedure: as §1, §3, §5

spirochetes = assay: Phase contrast microscopy of subgingival plaque: spirochetes; format: in vivo, human
Procedure: as §1, §2

[9] = tested on: subgingival microorganisms; assay: Phase contrast microscopy of subgingival plaque: total motile microorganisms; format: in vivo, human; design: key to Total subgingival microorganism score, 2 Months: 0 = no cells, 1 = 1-9, 2 = 10-39, 3 = >40 cells per category
Procedure: as §1, §2

[10] = 22 patients, 100 mg orally for two months, p<0.01
[11] = individual patients, sum of category scores (0 no motile cells, 1 1-9, 2 10-39, 3 more than 40 cells per microscopic field), 100 mg/day orally
[12] = 22 patients, 100 mg orally for two months, p<0.001
[13] = individual patients (one line per ID #), 100 mg CoQ10 per day orally for 2 months
[14] = individual patients, peripheral blood, 100 mg CoQ10 per day orally

Compound: COC1=C(OC)C(=O)C(C/C=C(\C)CC/C=C(\C)CC/C=C(\C)CC/C=C(\C)CC/C=C(\C)CC/C=C(\C)CC/C=C(\C)CC/C=C(\C)CC/C=C(\C)CCC=C(C)C)=C(C)C1=O [CoQ10, coenzyme Q10]
- Gingival inflammation ([1]; earlier clinical trials (refs 2,3,5)): improvement
- Periodontal pocket depth ([1]; earlier clinical trials (refs 2-5)): improvement
- Tooth mobility ([1]; earlier clinical trials (refs 3-5)): improvement
- Number of survivors ([2]; dibenzpyrene tumor model, mice): increase
- Percentage of mice with tumors ([2]; mice susceptible to dibenzpyrene-induced tumors): reduction
- Tumor size or number ([2]; mice that developed tumors): reduction
- Oxygen utilization in inflamed human gingiva [3]: increase
- Change of motile rods (motile rods; [10]): decreased; also recorded: significant reduction
- Motile Rods score, 2 Months (motile rods; [11]): 3 (5×) and 0 (7×) and 4 (2×) and 1 (3×) and 2 (3×) and 6 and 5
- Change of pocket depth [4, 12]: decreased
- Pocket Depth, 2 Months [4, 13]: 2.3 mm (3×) and 2.7 mm (2×) and 1.9 mm and 2.4 mm and 2.6 mm (3×) and 2.9 mm (2×) and 2.2 mm and 1.8 mm and 3.6 mm and 3.4 mm and 2.8 mm (2×) and 2.5 mm and 3.0 mm and 4.5 mm and 3.7 mm
- Pocket Depth, 2 Months, Mean ([4]; mean of 22 patients, S.D. 0.6, before 3.0, p <0.001, 100 mg/day orally): 2.8 + mm
- Activities of the CoQ10-dependent enzymes in inflamed dog gingiva [5]: increase
- CoQ10 levels in inflamed dog gingiva [5]: increase
- Change of blood level of CoQ10 (Blood CoQ10 level; [12]): increased in all of the patients
- CoQ10 level, 2 months, Mean + S.D. (Blood CoQ10 level; 22 patients, before 0.82 + 0.19, p <0.001): 1.75 + 0.37 ug/ml
- CoQ10 level, 2 months (Blood CoQ10 level; [14]): 1.60 µg/mL and 1.94 µg/mL and 1.59 µg/mL and 2.29 µg/mL and 2.39 µg/mL and 1.16 µg/mL and 1.99 µg/mL and 1.44 µg/mL and 2.37 µg/mL and 1.72 µg/mL and 2.22 µg/mL and 1.30 µg/mL and 2.10 µg/mL and 1.88 µg/mL and 1.65 µg/mL and 1.75 µg/mL and 1.74 µg/mL and 1.90 µg/mL and 1.55 µg/mL and 1.57 µg/mL and 1.26 µg/mL and 1.17 µg/mL
- Effectiveness of chloroquin (Plasmodium berghei): potentiated
- Parasitemia in the red blood cells (Plasmodium berghei): reduced
- Survival time (Plasmodium berghei): prolonged
- Survivors (Plasmodium berghei): increased
- Change of T4/T8 ratio (T4/T8 lymphocytes; [12]): significantly increased
- T4/T8 Ratio, 2 months, Mean + S.D. (T4/T8 lymphocytes; 22 patients, before 2.9 + 1.0, p <0.001): 3.4 + 1.3
- T4/T8 Ratio, 2 months (T4/T8 lymphocytes; [14]): 2.3 and 3.1 and 2.8 (2×) and 4.9 and 3.5 and 4.0 and 1.9 and 2.7 and 7.1 and 3.7 and 2.0 (2×) and 6.2 and 2.9 and 3.2 (2×) and 3.9 and 3.4 and 2.4 and 3.6 and 3.8
- Patients with evident increase of T4/T8 ratio (T4/T8 lymphocytes; out of 22): 17 patients
- Host defense mechanisms [6]: enhanced
- Change of gingival index [7, 10]: decreased
- Gingival Index, 2 Months [7, 13]: 0.5 (3×) and 0.7 (3×) and 0.1 (2×) and 0.2 (3×) and 0.3 (3×) and 1.0 (2×) and 1.4 (2×) and 1.1 and 1.3 and 0.4 and 0.8
- Gingival Index, 2 Months, Mean ([7]; mean of 22 patients, S.D. 0.4, before 0.9, p <0.001, 100 mg/day orally): 0.6 +
- Change of plaque index ([8]; 22 patients, 100 mg orally for two months): did not change; also recorded: no change
- Plaque Index, 2 Months [8, 13]: 0.0 (5×) and 0.6 (3×) and 0.3 (2×) and 0.2 (4×) and 0.1 (4×) and 0.4 (3×) and 2.0
- Plaque Index, 2 Months, Mean ([8]; mean of 22 patients, S.D. 0.4, before 0.3, not significant, 100 mg/day orally): 0.3 +
- Change of spirochetes (spirochetes; 22 patients, 100 mg orally for two months, p<0.02): decreased; also recorded: significant reduction
- Spirochetes score, 2 Months (spirochetes; [11]): 3 (8×) and 0 (7×) and 4 and 1 (3×) and 6 (2×) and 2
- Total subgingival microorganism score, 2 Months ([9]; individual patients, motile rods plus spirochetes scores, 100 mg/day orally): 6 (6×) and 3 (4×) and 0 (4×) and 8 (3×) and 1 (2×) and 2 and 5 and 7
- Patients in whom all motile microorganisms in the gingiva disappeared ([9]; of 22 patients, 100 mg orally for two months): 4/22 and four
